The values that follow are results of earlier work, collected in patent US20230149383A1, “QUINOLINE COMPOUNDS FOR TREATING LUNG, LIVER, AND KIDNEY DISEASES, DISORDERS, OR CONDITIONS” (Aldeyra Therapeutics, Inc., priority 2020, published 2023).

Data set [1] concerns precision-cut liver slices (PCLS). The note with it: addition of 4-methylpyrazole; cited from earlier work.
For data set [2], the system named is minimal change disease. Conditions: Hogan et al. 2013; cited from earlier work.
Data set [3] has as its system ocular inflammation. The note with it: Phase 2 and Phase 3 clinical trials; cited from earlier work.

For `Cc1cn[nH]c1` [4-methylpyrazole], the “ethanol-induced impairments (fatty liver, redox state, albumin secretion)” value in data set [1] is “reversed”. For `C[C@]12C=CC(=O)C=C1CC[C@@H]1[C@@H]2[C@@H](O)C[C@@]2(C)[C@H]1CC[C@]2(O)C(=O)CO` [prednisolone], in data set [2], the “complete remission, share of adults with minimal change disease” value is recorded as “over 80%”.

Regarding `CC(C)(O)c1nc2ccc(Cl)cc2cc1N` [reproxalap], the “benefit in ocular inflammation, including dry eye disease and allergic conjunctivitis” value in data set [3] is “beneficial”.
